The target of test [1] is T1, α1A (rat submaxillary gland) (Rattus norvegicus, UniProt P43140).
T1 construct: α1A (rat submaxillary gland); from tissue; host or cells: rat submaxillary gland
T1 sequence (P43140 1-466): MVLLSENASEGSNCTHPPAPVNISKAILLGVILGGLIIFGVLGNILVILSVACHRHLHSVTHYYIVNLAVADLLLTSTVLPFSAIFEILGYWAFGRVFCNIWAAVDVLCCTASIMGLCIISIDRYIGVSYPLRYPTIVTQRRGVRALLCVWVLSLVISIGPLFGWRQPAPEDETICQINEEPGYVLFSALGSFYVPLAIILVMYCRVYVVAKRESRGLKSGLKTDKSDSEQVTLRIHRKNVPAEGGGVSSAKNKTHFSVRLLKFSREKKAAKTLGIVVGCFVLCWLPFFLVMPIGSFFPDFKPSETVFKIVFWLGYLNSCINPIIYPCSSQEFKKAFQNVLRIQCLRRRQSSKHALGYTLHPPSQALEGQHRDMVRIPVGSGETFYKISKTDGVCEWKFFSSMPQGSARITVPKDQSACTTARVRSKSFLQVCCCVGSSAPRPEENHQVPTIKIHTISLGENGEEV
The test is described as follows: Radioligand binding with [3H]-prazosin, α1A. The protocol: (§1) For purposes of discussing α1 adrenoceptor subtypes, the IUPHAR convention of using lower case letters to define molecular clones and upper case letters to indicate pharmacologically defined adrenoceptors has been followed. Compounds of formula I were evaluated in radioligand binding assays specific for α1A (rat submaxillary gland), α1b (hamster receptor expressed in mouse fibroblasts) and α1d (rat receptor expressed in mouse fibroblasts) using [^3H]-prazosin as the radioligand as described in Knepper, et al. J. Pharm.

The target of test [2] is T2, α1b (hamster receptor expressed in mouse fibroblasts) (Mesocricetus auratus, UniProt P18841).
T2 construct: expressed in transfected cells; host or cells: mouse fibroblasts
T2 sequence (P18841 1-515): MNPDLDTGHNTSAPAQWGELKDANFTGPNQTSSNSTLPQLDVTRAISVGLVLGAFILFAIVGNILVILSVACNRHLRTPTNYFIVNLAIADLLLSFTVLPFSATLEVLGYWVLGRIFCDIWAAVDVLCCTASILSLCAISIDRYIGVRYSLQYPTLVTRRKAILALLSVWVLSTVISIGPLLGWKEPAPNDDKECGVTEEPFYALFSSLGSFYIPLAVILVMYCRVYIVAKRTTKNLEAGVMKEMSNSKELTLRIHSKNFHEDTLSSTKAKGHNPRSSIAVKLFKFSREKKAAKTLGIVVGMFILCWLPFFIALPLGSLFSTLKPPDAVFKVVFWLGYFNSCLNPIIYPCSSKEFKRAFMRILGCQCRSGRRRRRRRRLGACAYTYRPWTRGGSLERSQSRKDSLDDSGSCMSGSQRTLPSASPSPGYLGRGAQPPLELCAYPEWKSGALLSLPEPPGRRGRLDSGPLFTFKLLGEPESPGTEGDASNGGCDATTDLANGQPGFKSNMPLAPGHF
The test is described as follows: Radioligand binding with [3H]-prazosin, α1b. The protocol: as §1

Test [3] addresses T3, α1d (rat receptor expressed in mouse fibroblasts) (Rattus norvegicus, UniProt P23944).
T3 construct: expressed in transfected cells; host or cells: mouse fibroblasts
T3 sequence (P23944 1-561): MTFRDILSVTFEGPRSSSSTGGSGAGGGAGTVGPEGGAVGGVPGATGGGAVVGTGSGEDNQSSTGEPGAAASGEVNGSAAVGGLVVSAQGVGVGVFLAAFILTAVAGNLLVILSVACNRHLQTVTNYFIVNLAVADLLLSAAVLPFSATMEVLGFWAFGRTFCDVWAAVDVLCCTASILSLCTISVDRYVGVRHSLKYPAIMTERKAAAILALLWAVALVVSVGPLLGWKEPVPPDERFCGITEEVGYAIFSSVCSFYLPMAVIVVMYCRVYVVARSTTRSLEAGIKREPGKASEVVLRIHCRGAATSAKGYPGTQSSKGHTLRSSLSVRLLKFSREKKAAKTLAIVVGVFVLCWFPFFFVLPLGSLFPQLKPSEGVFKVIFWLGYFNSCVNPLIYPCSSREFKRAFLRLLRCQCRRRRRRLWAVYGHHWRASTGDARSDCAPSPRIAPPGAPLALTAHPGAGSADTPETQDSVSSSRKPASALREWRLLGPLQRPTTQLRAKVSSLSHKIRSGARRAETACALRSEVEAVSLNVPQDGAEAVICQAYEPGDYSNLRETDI
The test is described as follows: Radioligand binding with [3H]-prazosin, α1d. The protocol: as §1

In test [4] the target is T4, α1D (rat aorta) (Rattus norvegicus, UniProt P23944).
T4 construct: α1B (rat spleen) and α1D (rat aorta) receptors; from tissue; host or cells: rat aorta strips, endothelium removed
T4 sequence (P23944 1-561): T3 sequence (P23944 1-561)
The test is described as follows: Agonist contraction of smooth muscle tissue, rat aorta. The class given is cell-based. The settings on record: for EC50: read-out: Agonist Tissue Response (pD2) α1D (rat aorta) (converted).

The target of test [5] is T5, α1A (rabbit urethra) (Oryctolagus cuniculus, UniProt O02824).
T5 construct: tested for α1A functional activity using rabbit urethra; from tissue; host or cells: rabbit urethra
T5 sequence (O02824 1-466): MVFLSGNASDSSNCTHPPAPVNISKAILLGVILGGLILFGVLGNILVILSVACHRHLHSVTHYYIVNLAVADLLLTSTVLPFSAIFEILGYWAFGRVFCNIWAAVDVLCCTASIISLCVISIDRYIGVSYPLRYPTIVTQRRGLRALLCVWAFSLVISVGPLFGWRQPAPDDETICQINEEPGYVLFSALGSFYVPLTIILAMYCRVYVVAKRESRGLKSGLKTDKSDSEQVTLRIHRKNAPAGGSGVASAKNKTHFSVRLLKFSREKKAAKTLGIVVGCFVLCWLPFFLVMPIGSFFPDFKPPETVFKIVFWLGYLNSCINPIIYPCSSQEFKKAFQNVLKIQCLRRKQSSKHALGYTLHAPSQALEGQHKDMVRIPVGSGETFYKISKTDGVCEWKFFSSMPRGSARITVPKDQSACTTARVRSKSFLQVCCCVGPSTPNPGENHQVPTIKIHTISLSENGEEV
The test is described as follows: Agonist contraction of smooth muscle tissue, rabbit urethra. The format is cell-based. The settings on record: for EC50: read-out: Agonist Tissue Response (pD2) α1A (rab ureth) (converted). The procedure:
Most of the compounds were tested for α1A functional activity using rabbit urethra as follows. Female New Zealand white rabbits (2.0-3.5 Kg) were sedated with CO2 and decapitated. […] Subsequent experimental conditions were as described above for the other tissues. Agonist concentration response curves were cumulative except for the vas deferens assay in which the transient response made such measurements impractical.

Test [6] has as its target T6, α1B (rat spleen) (Rattus norvegicus, UniProt P15823).
T6 construct: α1B (rat spleen) and α1D (rat aorta) receptors; from tissue; host or cells: rat spleen
T6 sequence (P15823 1-515): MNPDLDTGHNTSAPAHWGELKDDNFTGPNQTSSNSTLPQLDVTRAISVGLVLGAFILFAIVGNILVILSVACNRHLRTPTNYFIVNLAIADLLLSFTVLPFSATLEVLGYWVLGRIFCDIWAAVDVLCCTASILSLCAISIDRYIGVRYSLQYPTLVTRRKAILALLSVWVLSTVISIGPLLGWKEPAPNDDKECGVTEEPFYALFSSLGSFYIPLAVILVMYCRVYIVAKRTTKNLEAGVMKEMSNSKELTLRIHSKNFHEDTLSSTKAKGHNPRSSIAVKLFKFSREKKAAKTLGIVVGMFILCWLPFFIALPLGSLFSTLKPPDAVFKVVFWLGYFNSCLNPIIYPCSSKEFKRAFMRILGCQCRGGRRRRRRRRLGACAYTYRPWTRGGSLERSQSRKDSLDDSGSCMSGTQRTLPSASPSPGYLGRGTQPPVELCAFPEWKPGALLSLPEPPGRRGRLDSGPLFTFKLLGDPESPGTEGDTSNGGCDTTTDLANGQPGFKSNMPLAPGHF
The test is described as follows: Agonist contraction of smooth muscle tissue, rat spleen. The format is cell-based. The settings on record: for EC50: read-out: Agonist Tissue Response (pD2) α1B (rat spleen) (converted).

Setting [7] is: rat submaxillary gland, [3H]-prazosin.
Where [8] appears, read: hamster receptor expressed in mouse fibroblasts, [3H]-prazosin, read-out: Radioligand Binding Ki α1b (Hamster).
[9] abbreviates: rat receptor expressed in mouse fibroblasts, [3H]-prazosin, read-out: Radioligand Binding Ki α1d (Rat).
Where [10] appears, read: Radioligand Binding Ki α1d (Rat), rat receptor expressed in mouse fibroblasts, [3H]-prazosin.

pKi: −log10 of the molar value. Structures can show the parent of a compound that is named as a salt. Where two headings read alike, the source gives them in different places. Some results are limits rather than exact numbers.

Turning to “5-Chloro-N-[5-(1H-imidazol-5-yl)-5,6,7,8-tetrahydro-1-naphthalenyl]-3-methyl-2,3-dihydro-1-benzothiophene-2-sulfonamide [Example 77]”, the results for the pKi in test [1] (setting [7]), in test [2] (setting [8]) and in test [3] (setting [9]) were 6.19, 6.49 and 6.95, respectively.

As to `Cn1cnc(C2CCCc3c2ccc(O)c3NS(C)(=O)=O)c1` (centres unmarked) [Example 5, N-[2-hydroxy-5-(1-methyl-1H-imidazol-4-yl)-5,6,7,8-tetrahydro-1-naphthalenyl]methanesulfonamide, hydrochloride], the EC50 in test [4] is 3.31 µM; in test [5] it was 0.513 µM; in test [6] it was 9.33 µM. The negative-log Ki (pKi) in test [1] is 6.87; in test [2] (read-out: Radioligand Binding Ki α1b (Hamster)), 5.21; in test [3] (read-out: Radioligand Binding Ki α1d (Rat)) it was 5.81.

As for `Cc1ccc(NS(C)(=O)=O)c2c1C(c1c[nH]cn1)CCC2` (centres unmarked) [Example 23, N-[5,6,7,8-tetrahydro-5-(1H-imidazol-4-yl)-4-methyl-1-naphthalenyl]methanesulfonamide, maleate], the EC50 in test [4] (rat aorta, endothelium removed) is > 1000 µM; in test [5] (rabbit urethra) it was 39.8 µM; in test [6] (rat spleen), > 1000 µM. Also, the pKi in test [1] (setting [7]) is 6.41; in test [3] (setting [9]), 5.57.

On to `CCS(=O)(=O)Nc1cccc(C(C)c2c[nH]cn2)c1` (centres unmarked) [Example 37, N-{3-[1-(1H-imidazol-4-yl)ethyl]phenyl}ethanesulfonamide, maleate], for which the pKi was 6.11 in test [1] (setting [7]), 5.64 in test [2] and 6.34 in test [3] (setting [10]). Besides, the EC50 in test [5] (rabbit urethra) was 5.37 µM.

In the case of `CS(=O)(=O)Nc1ccc(F)c(Cc2c[nH]cn2)c1` [Example 41, N-[4-fluoro-3-(1H-imidazol-4-ylmethyl)phenyl]methanesulfonamide, maleate], the pKi in test [1] (setting [7]) was 6.12; in test [2], 5.79; in test [3] (setting [10]) it was 6.46. Further, the EC50 in test [5] (rabbit urethra) was 13.5 µM.

As to `CS(=O)(=O)Nc1ccc(Cl)c2c1CCCC2c1c[nH]cn1` (centres unmarked) [Example 43, N-[4-chloro-5-(1H-imidazol-4-yl)-5,6,7,8-tetrahydro-1-naphthalenyl]methanesulfonamide, maleate], the EC50 in test [4] (rat aorta, endothelium removed) was > 1000 µM; in test [5] (rabbit urethra) it was 44.7 µM; in test [6] (rat spleen), > 1000 µM. For the same molecule, the negative logarithm of the Ki (pKi) in test [1] (setting [7]) was 6.35; in test [3] (setting [9]) it was 5.54.

Regarding `CCS(=O)(=O)Nc1cccc(C(=C2CCCCC2)c2c[nH]cn2)c1` [Example 56], the EC50 in test [4] (rat aorta, endothelium removed) was > 1000 µM; in test [5] (rabbit urethra), 16.2 µM. The pKi in test [1] (setting [7]) was 6.64; in test [2], 7.82; in test [3] (setting [10]), 8.70.

For `O=S(=O)(CCCCl)Nc1cccc2c1CCCC2c1cnc[nH]1` (centres unmarked) [Example 65, 3-Chloro-N-[5-(1H-imidazol-5-yl)-5,6,7,8-tetrahydro-1-naphthalenyl]-1-propanesulfonamide], the results for the negative-log Ki (pKi) in test [1] (setting [7]), in test [2] (setting [8]) and in test [3] (setting [9]) were 5.94, 5.36 and 5.28, respectively.

`Cn1cnc(S(=O)(=O)Nc2cccc3c2CCCC3c2cnc[nH]2)c1` (centres unmarked) [Example 66, N-[5-(1H-imidazol-5-yl)-5,6,7,8-tetrahydro-1-naphthalenyl]-1-methyl-1H-imidazole-4-sulfonamide]: the figures for the pKi in test [1] (setting [7]), in test [2] (setting [8]) and in test [3] (setting [9]) were 6.44, 5.95 and 6.34, respectively.

With `COc1ccc(S(=O)(=O)Nc2cccc3c2CCCC3c2cnc[nH]2)cc1` (centres unmarked) [Example 71, N-[5-(1H-imidazol-5-yl)-5,6,7,8-tetrahydro-1-naphthalenyl]-4-methoxybenzenesulfonamide], the pKi in test [1] (setting [7]) was 5.81; in test [2] (setting [8]) it was 5.98; in test [3] (setting [9]), 5.64.

For `O=S(=O)(Nc1cccc2c1CCCC2c1cnc[nH]1)c1cccc2cccnc12` (centres unmarked) [Example 73, N-[5-(1H-imidazol-5-yl)-5,6,7,8-tetrahydro-1-naphthalenyl]-8-quinolinesulfonamide], the pKi was 5.99 in test [1] (setting [7]), 5.92 in test [2] (setting [8]) and 5.65 in test [3] (setting [9]). Further, the EC50 in test [5] (rabbit urethra) was 17.8 µM.

For the molecule “N-[5,6,7,8-tetrahydro-5-(1H-imidazol-4-yl)-1-naphthalenyl]-2-methylethanesulfonamide, maleate [Example 18]”, the “Agonist Tissue Response (pD2) α1D (rat aorta)” value in test [4] (rat aorta, endothelium removed) was determined as 4.96. Further, the pKi is 5.94 in test [1] (setting [7]) and 5.69 in test [3] (setting [9]). In addition, the “Agonist Tissue Response (pD2) α1A (rab ureth)” value in test [5] (rabbit urethra) came out at 5.17. In test [6] (rat spleen), the “Agonist Tissue Response (pD2) α1B (rat spleen)” value is given as 4.85.

Usually pKi stands for the Ki on a negative log10 scale, so that one unit is a factor of ten.

These data come from patent US6503935B1, “Imidazoles and related compounds as α1A agonists” (Abbott Laboratories, priority 1998, dated 2003).
